The values below come from patent publication US20210115366A1, “METHODS OF MAKING IMPROVED HUMAN INTESTINAL ORGANOID COMPOSITIONS VIA APPLICATION OF STRAIN AND HUMAN INTESTINAL ORGANOID COMPOSITIONS THEREOF” (Children's Hospital Medical Center, priority 2017, published 2021).

One test has as its system tHIO+S. Nature of the test: Ex vivo muscle strength (organ bath, isometric force) of tHIO+S muscle strips. Further details: species or system human. The method, then:
(§1) After an equilibration period, muscle force contraction was assayed using a logarithmic series of bethanechol doses ranging in concentration from 1 nM to 10 mM. Representative tensile response recordings are plotted for tHIO, tHIO+S and adult jejunum (FIG. 7B). […] To better visualize the differences between tHIO and tHIO+S the data was also plotted sans adult jejunum (FIG. 7C, right panel).
(§2) tHIO and tHIO+S grafts were harvested and placed in ice-cold Hank's Balanced Salt Solution (HBSS). Human surgical samples were maintained overnight at 4° C. in HBSS prior to assaying in order to minimize the effects of anesthetics. Muscle strips (4-6 mm in length and 1-2 mm in width) were dissected from the samples. Strips were then suspended vertically in an organ bath chamber (Radnoti) filled with freshly prepared Krebs-Ringer solution (Sigma; supplemented with 2.5 mM CaCl and 15 mM NaHCO3; pH 7.4), warmed to 37° C. and gassed with 95% O2+5% CO2. Segments were allowed to equilibrate for an hour at an initial tension of 0.5 g. The contractile response of the muscle was continuously recorded, using 4-chamber tissue-organ bath chambers with isometric force transducers (0-25 g; AD Instruments) coupled to a multi-channel bridge amplifiers and data recorder (AD Instruments; PowerLab 4/35) linked to a computer equipped with LabChart Pro software (AD Instruments). […]

A further test concerns adult human jejunum. Nature of the test: Ex vivo muscle strength (organ bath, isometric force) of adult jejunum muscle strips. The method, then: as §1, §2
The subject of a further test is tHIO. The test is described as follows: Ex vivo muscle strength (organ bath, isometric force) of tHIO muscle strips. The arrangement: species or system human. The method, then:
as §1, §2

The next test concerns infant jejunum. Nature of the test: Ex vivo muscle strength (organ bath, isometric force) of infant jejunum muscle strips. Further details: species or system human. The following applies: 10 μM after bethanechol dose series. The method, then:
as §1, §2

Setting [1] is: 10 μM after bethanechol dose series.

Entries after “also recorded” stand apart in the source; their conditions may differ.

Turning to `CC(C[N+](C)(C)C)OC(N)=O` (stereo not shown) [bethanechol, Carbamyl-p-methylcholine chloride], the EC50 came to 14.7 µM in the test on tHIO+S (Homo sapiens, logarithmic doses 1 nM to 10 mM, read-out: effective concentration to achieve half of the maximal response (EC50), muscle contraction) and 3.28 µM in the test with adult human jejunum (adult human jejunum muscle strips, logarithmic doses 1 nM to 10 mM, read-out: effective concentration to achieve half of the maximal response (EC50), muscle contraction). The “tensile response to bethanechol” value in the test on tHIO (1 nM to 10 mM, EC50 with 95% confidence could not be determined) is “low overall tensile response”.

Take `CN1[C@@H]2C[C@@H](OC(=O)[C@H](CO)c3ccccc3)C[C@H]1[C@@H]1O[C@@H]12` [scopolamine]: the “tension before and after administration of scopolamine (relaxation)” value with tHIO+S (setting [1]) is “Relaxation was successfully induced; also recorded: relaxation is observed”; in the test on adult human jejunum (adult jejunum muscle strips, 10 μM after bethanechol dose series) it was “Relaxation was successfully induced”; with tHIO (setting [1]), “Relaxation was successfully induced; also recorded: relaxation is observed”; in the test on infant jejunum, “Relaxation was successfully induced”.
